Results from patent US4371673A, “Water soluble forms of retinoids” (The United States of America as represented by the …, priority 1980, dated 1983).
Converted amounts (≈) assume the structure as drawn. “And” between values parts separate entries of the source, which are not always exact repeats. Equal values may be shown once. Read-outs that look alike come from different tables or passages of the source. Values belong to the compound of their own block, whether it stands above or below them.

Legend:
[1] = tested on: vitamin A-deficient rats; assay: Vitamin A-like activity measured by survival of rats fed vitamin A-deficient diet; format: in vivo, rat (male weanling albino, Holtzman); settings: for No. of surviving animals/total: 100 μg retinal equivalent for complex
Experimental: Studies were undertaken to determine whether the chemical modification of retinoids to polymer-linked water soluble forms alter its biological activities. Specifically, the vitamin A-like activity of the mixed α-, β-dextrin complex of retinal-carboxymethyldextran hydrazone was tested on rats made vitamin A-deficient. The "animals" referred to herein should be construed as meaning rats.
To prepare the rats for dietary studies, male weanling albino rats of the Holtzman string were fed a vitamin A-deficient diet until a weight plateau was reached. A cyclic program was then begun in which the rats which were provided with the deficient diet were supplemented with retinoic acid at a rate of 2 μg per g. This was continued for 18 days followed by 10 days of the original deficient diet. At the termination of the fourth 18-day period in which the rats were fed the retinoic acid supplemented diet, the rats were fed for 7 days with the deficient diet and then used in two types of experiments: (a) Studies of the resorption of retinal-carboxymethyldextran hydrazone from the gastrointestinal tract and (b) studies of growth support for avitamineosis. The results of the resorption studies (a) were determined by spectrophotometrically analyzing for retinol in the serum or liver. The vitamin A-like activity of the complexes of the present invention (b) was evaluated by comparison of survival rates of a control group, those fed a cyclodextrin complex of a retinoid-polymer and those fed a free retinoid derivative.
^a The control rats received 0.2 mL of cottonseed oil
intraperitoneally while the treated animals received […] of retinyl
acetate or retinoic acid in 0.2 mL cottonseed oil or retinaldextran
complex (100 μg of retinal equivalent) in 0.2 mL water. Subsequently,
the rats received a vitamin Adeficient diet for periods indicated in the
Table and their survival was followed.
In the second series of experiments, compared in Table 2, the retinal-carboxymethyldextran complex was administered intraperitoneally and the survival of the vitamin A-deficient rats was followed during the 28 to 35 days of a vitamin A-deficient diet. […] In contrast, the control rats as well as those rats which received retinoic acid (Experiment 3) died.

[2] = Direct solubilization of retinoids by cyclodextrins and their derivatives; format: physicochemical; settings: read-out: Solubility of retinoid in physiological buffered saline
Source text: It has been discovered that by appropriately selecting a derivatized cyclodextrin, it is unnecessary to prepare a retinoid-polymer compound preliminary to, or concurrent with, the preparation of the complex. This greatly simplifies the process of dissolving a retinoid. Thus, to prepare a solution of the cyclodextrin retinoid complex, it is merely necessary to add the components, retinoid and cyclodextrin, with stirring to an aqueous medium, such as a saline or isotonic solution, at room temperature. If one has a suitable cyclodextrin available, it is unnecessary to synthesize the cyclodextrin retinoid-polymer.
Some examples of the solubility obtained for retinoid-dextrin complexes of the present invention in physiologically acceptable solutions are presented in Table 1. It may be noted that while the solubility of a complex of one retinoid with a particular cyclodextrin may not be great, the solubility of a complex of another retinoid, using the same cyclodextrin, may be increased several orders of magnitude.
Solubility of retinoid (μg/ml)
in physiological buffered saline
(NaCl, 8 g/L; Na2 HPO4.7H2 O,
2.2g/L; KCl, 0.2 g/L and […]

[3] = tested on: S91 melanoma cells; assay: S91 melanoma cell proliferation (growth inhibition); format: cell-based; settings: for inhibition at 0.2 µM: Mus musculus, S91, 144 h, read-out: Percentage of growth inhibition
Experimental: Medium was chaged on Day 3. The cells were treated for 6 days

[4] = in vitro; settings: mouse, s9
Source text: Decreased plating efficiency and cell lysis are considered indications of cytotoxic effects.

[5] = physchem; settings: isotonic buffered saline
Source text: The concentration of retinal in the complex was estimated by comparison of the absorbance at the peak of the absorbance spectrum with the absorbance of free retinal in ethanol at 380 nm.

[6] = tested on: vitamin A-deficient rats; assay: Retinol in serum and liver of treated vitamin A-deficient rats (spectrophotometric), resorption studies; design: species or system rat (male weanling albino, Holtzman); settings: rat, in vivo, ip
[7] = buffered saline with α-cyclodextrin, α-cyclodextrin, 50 mg/ml
[8] = buffered saline with β-cyclodextrin, β-cyclodextrin, 17 mg/ml
[9] = physiological buffered saline, dodecakis-2,6-O-methyl-α-cyclodextrin, 25 mg/ml
[10] = physiological buffered saline, hexadecakis-2,6-O-methyl-γ-cyclodextrin, 25 mg/ml
[11] = physiological buffered saline, solubilization agent: none
[12] = physiological buffered saline, tetradecakis-2,6-O-methyl-β-cyclodextrin, 50 mg/ml
[13] = physiological buffered saline, γ-cyclodextrin, 50 mg/ml

SMILES: CC(=O)OC/C=C(C)/C=C/C=C(C)/C=C/C1=C(C)CCCC1(C)C [Retinyl acetate]
No. of surviving animals/total ([1]; Experiment 1, 35 days on vitamin A-deficient diet, intraperitoneal): 3/3
No. of surviving animals/total ([1]; Experiment 2, 28 days on vitamin A-deficient diet, intraperitoneal): 4/4

solubility [2, 7]: 4 µg/mL (≈ 14.1 µM)
solubility [2, 8]: 2 µg/mL (≈ 7.03 µM)
solubility [2, 9]: 7 µg/mL (≈ 24.6 µM)
solubility [2, 10]: 4 µg/mL (≈ 14.1 µM)
solubility [2, 11]: < 1 µg/mL
solubility [2, 12]: 570 µg/mL (≈ 2000 µM)
solubility [2, 13]: 1 µg/mL (≈ 3.52 µM)
MCC [4]: ≥ 10 µM
MNTC [4]: 2000 nM
solubility [5]: < 0.01 µg/mL
SMILES: CC1=C(/C=C/C(C)=C/C=C/C(C)=C/C=O)C(C)(C)CCC1 [retinal]
growth rate of cells after 48 hours (in words) ([3]; 48 hours, retinal 1 μM, complex 10 μM retinal moiety, FIG. 3, vs untreated controls): reduced in comparison to the untreated controls
growth inhibition, dose dependence (in words) ([3]; 6 days, below 2 μM (retinal) and 40 μM (complex), FIG. 2): dose-dependent inhibition
inhibition at 0.2 µM ([3]; 0.2 μM, 6 days): 28%
inhibition at 0.2 µM ([3]; second retinal line, printed 0.2 μM, 6 days): 52%
relative potency as growth inhibitor (in words) ([3]; all concentrations where retinal is not toxic): more potent inhibitor than the corresponding complex
inhibition of cell proliferation, first 24 hours (in words) ([3]; first 24 hours, retinal 1 μM, complex 10 μM retinal moiety, FIG. 3): no apparent inhibition of cell proliferation
CC50 [4]: 4 µM

SMILES: CC1=C(/C=C/C(C)=C/C=C/C(C)=C/C(=O)O)C(C)(C)CCC1 [retinoic acid]
solubility [2, 7]: 140 µg/mL (≈ 466 µM)
solubility [2, 8]: 2000 µg/mL (≈ 6660 µM)
solubility [2, 9]: 460 µg/mL (≈ 1530 µM)
solubility [2, 10]: 140 µg/mL (≈ 466 µM)
solubility [2, 11]: 20 µg/mL (≈ 66.6 µM)
solubility [2, 12]: 460 µg/mL (≈ 1530 µM)
solubility [2, 13]: 130 µg/mL (≈ 433 µM)
day of death of animals ([1]; Experiment 3, individual animals): 14 days and 28 days and 30 days
No. of surviving animals/total ([1]; Experiment 3, 31 days on vitamin A-deficient diet, intraperitoneal): 0/3
survival / vitamin A-like activity (in words) ([1]; intraperitoneal, 28 to 35 days of vitamin A-deficient diet): died
Serum retinol (in words) [6]: not detectable
